# According to ChEMBL document CHEMBL1932949, “Novel indoleamine 2,3-dioxygenase-1 inhibitors from a multistep in silico screen” (Bioorg Med Chem, 2012):
# Target: T1, Indoleamine 2,3-dioxygenase 1 (Homo sapiens, UniProt P14902)
# Experiment: Inhibition of His-tagged recombinant human IDO1 expressed in Escherichia coli using tryptophan as substrate by spectrophotometric analysis
# Settings: not given
# Target sequence in this assay (P14902 whole entry): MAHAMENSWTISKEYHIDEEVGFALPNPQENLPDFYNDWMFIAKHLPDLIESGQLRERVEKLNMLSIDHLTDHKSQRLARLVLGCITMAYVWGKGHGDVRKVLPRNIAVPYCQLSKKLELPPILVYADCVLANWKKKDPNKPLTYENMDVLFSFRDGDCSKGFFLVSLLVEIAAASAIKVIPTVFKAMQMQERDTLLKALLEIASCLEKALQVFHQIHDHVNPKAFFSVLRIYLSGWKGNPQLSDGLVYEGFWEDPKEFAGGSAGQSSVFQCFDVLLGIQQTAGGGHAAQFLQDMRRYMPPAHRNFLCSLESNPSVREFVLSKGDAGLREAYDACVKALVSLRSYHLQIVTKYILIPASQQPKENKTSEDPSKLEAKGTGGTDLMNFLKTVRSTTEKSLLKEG
row,IC50,Compound
1,190 µM,Nc1cc2ccccc2cc1CO
2,460 µM,COC(=O)c1cc2ccccc2cc1N
3,1000 µM,O=C(O)c1cc2ccccc2cc1O
4,15 µM,Nc1cc2ccccc2cc1C(=O)O

row,Compound,IC50
1,c1ccc2c(c1)[nH]c1cnccc12 [NORHARMANE],90 µM

# Target: T1, Indoleamine 2,3-dioxygenase 1
# Settings: at 200 µM
# Target sequence in this assay (P14902 whole entry, looked up): as the sequence (P14902 whole entry) above
# Description: Inhibition of His-tagged recombinant human IDO1 expressed in Escherichia coli using tryptophan as substrate at 200 uM by spectrophotometric analysis
row,inhibition,Compound
1,70%,N/C(=N/OC(=O)c1cc2ccccc2oc1=O)c1ccc(Oc2ccc(C(F)(F)F)cc2[N+](=O)[O-])cc1
2,70%,Cc1nnsc1C(=O)O/N=C(/N)COc1ccc(C2SCCS2)cc1
3,0%,OC1(c2ccc(Cl)cc2)CCN(Cn2nnc3ccccc32)CC1
4,0%,CN1CCN(C(=O)c2nccnc2C(=O)O)CC1
5,0%,O=c1nc2sccn2c2ncccc12
6,0%,S=C1N2CCN=C2SC2=NCCN12
7,0%,N/C(CS(=O)(=O)c1ccccc1)=N\O
8,70%,Nc1ccc2c(c1)N1CCN=C1S2
9,0%,CCOC(=O)N1CCN(CC(O)Cn2c(=O)c3c(ncn3C)n(C)c2=O)CC1 (stereo not given)
10,0%,Cc1cc2nnc(/C(N)=N/O)c(C)n2n1
11,0%,CN(C)CCCNc1cccc(Cl)c1C#N
12,0%,O=c1[nH]nc2n1-c1ccccc1SC2
13,0%,Sc1nnc2nnc3ccccc3n12
14,70%,N/C(=N\OC(=O)c1ccccc1Cl)c1cccc(CS(=O)(=O)c2ccc(Cl)cc2)c1
15,0%,O=c1c2ccccc2nc2ccccn12
16,0%,N/C(=N\OS(=O)(=O)c1ccc(Cl)cc1)c1ccc(C(F)(F)F)cc1
17,0%,Cn1c(S)nnc1-c1ccc(Cl)cc1
18,0%,O[C@@H](CNCCNc1nccc(C(F)(F)F)n1)CSc1ccc(F)cc1

# Target: T1, Indoleamine 2,3-dioxygenase 1
# Experiment: Inhibition of IDO1
# Settings: not given
# Target sequence in this assay (P14902 whole entry): as above
row,Compound,IC50
1,Cc1[nH]ccc2c1[nH]c1cc(=O)ccc12 [HARMOL],2000 µM

# System: not listed separately
# Experiment: Dissociation constant, pKa of the compound
# Assay type: physicochemical
# Settings: not given
row,pKa,Compound
1,9.83,CSC(=N)N

# Target: T1, Indoleamine 2,3-dioxygenase 1
# Experiment: Inhibition of His-tagged recombinant human IDO1 expressed in Escherichia coli using tryptophan as substrate at 100 uM by spectrophotometric analysis
# Settings: not given
# Target sequence in this assay (P14902 whole entry, looked up): as the sequence (P14902 whole entry) above
row,inhibition,Compound
1,74%,Nc1cc2ccccc2cc1C(=O)O

# Target: T1, Indoleamine 2,3-dioxygenase 1
# Experiment: Inhibition of His-tagged recombinant human IDO1 expressed in Escherichia coli using tryptophan as substrate by HPLC analysis
# Settings: not given
# Target sequence in this assay (P14902 whole entry): as above
row,IC50,Compound
1,50 µM,Nc1ccc2c(c1)N1CCN=C1S2

# Target: T1, Indoleamine 2,3-dioxygenase 1
# Experiment: Inhibition of His-tagged recombinant human IDO1 expressed in Escherichia coli using tryptophan as substrate by Ehrlich's method
# Settings: not given
# Target sequence in this assay (P14902 whole entry): as above
row,IC50,Compound
1,50 µM,Cc1nnsc1C(=O)O/N=C(/N)COc1ccc(C2SCCS2)cc1
2,60 µM,NC(=NOC(=O)c1ccccc1Cl)c1cccc(CS(=O)(=O)c2ccc(Cl)cc2)c1
3,20 µM,N=C(NOC(=O)c1cc2ccccc2oc1=O)c1ccc(Oc2ccc(C(F)(F)F)cc2[N+](=O)[O-])cc1
